# From patent EP1157985A1 (G.D. SEARLE & CO., priority 1996, dated 1997)
# Counter-ions that a name gives are not always drawn. Like-named read-outs stand apart in the source and are kept apart here.
# Assays:
# [1] = target: T1, Human vitronectin receptor (αvβ3) (Homo sapiens, UniProt P05106+P06756); assay: Vitronectin adhesion assay (solid phase receptor assay, competition with biotinylated vitronectin); format: binding
# T1 construct: Human vitronectin receptor (αvβ3) was purified from human placenta; from tissue; host or cells: human placenta
# [2] = target: T2, Human fibrinogen receptor (αIIbβ3) (Homo sapiens, UniProt P05106+P08514); assay: Purified IIb/IIIa receptor assay (solid phase receptor assay, competition with biotinylated vitronectin); format: binding; conditions: purified receptor from outdated platelets; 1 nM biotinylated vitronectin; highest concentration tested 1.0 x 10^-4 M
# T2 construct: Human fibrinogen receptor (αIIbβ3) was purified from outdated platelets; from tissue; host or cells: outdated (human) platelets
# How it was run: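 Platelet-derived αIIbβ3 coated at 1.0 µg/mL overnight at 4 °C in TBS with 1 mM Ca, Mg, Mn, pH 7.4, BSA-blocked; compounds competed with 1 nM biotinylated vitronectin (final; top compound 1.0 × 10^-4 M) for 2 h at room temperature. Bound ligand detected via HRP anti-biotin, A450; normalized to maximum binding, four-parameter fit.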
# [3] = purified receptor from human placenta; 1 nM biotinylated vitronectin; highest concentration tested 1.0 x 10^-4 M; read-out: AvB3 IC50
# [4] = read-out: AvB3 IC50; purified receptor from human placenta; 1 nM biotinylated vitronectin; highest concentration tested 1.0 x 10^-4 M
SMILES,"IC50 [1, 3]",IC50 [2],"IC50 [1, 4]"
"O=C(Nc1ccc(CC(NS(=O)(=O)c2ccccc2)C(=O)O)cc1)c1cccc(NC2=NCCN2)c1 (stereo not drawn) [Example 112, 4-[[[3-[(4,5-dihydro-1H-imidazol-2-yl)amino]phenyl]-carbonyl]amino-N-(phenylsulfonyl)phenylalanine, trifluoroacetate salt]",0.3 nM,13 nM,
"COc1cc(NC(=O)c2cccc(NC3=NCCCN3)c2)ccc1C[C@H](NC(=O)OC(C)C)C(=O)O [Example 114, 2-methoxy-N-[(1-methylethoxy)carbonyl]-4-[[[3-[(1,4,5,6-tetrahydropyrimidin-2-yl)amino]-phenyl]-carbonyl]amino]phenylalanine, trifluoroacetate salt]",0.2 nM,1000 nM,
"COc1cc(NC(=O)c2cccc(NC(=N)N)c2)ccc1CCC(=O)O [Example 115, 4-[[[3-(aminoiminomethyl)amino]phenyl]-carbonyl]amino]-2-methoxybenzenepropanoic acid, trifluoroacetate salt]",24 nM,173 nM,
"COc1cc(NC(=O)c2cccc(NC3=NCCCN3)c2)ccc1CCC(=O)O [Example 116, 2-methoxy-4-[[[3-[(1,4,5,6-tetrahydropyrimidin-2-yl)amino]phenyl]carbonyl]amino]benzenepropanoic acid, trifluoroacetate salt]",6 nM,3180 nM,
"CN(C)c1cc(NC(=O)c2cccc(NC(=N)N)c2)ccc1CCC(=O)O [Example 117, 4-[[[3-[(aminoiminomethyl)amino]phenyl]carbonyl]-amino]-2-(dimethylamino)benzenepropanoic acid, bis(trifluoroacetate) salt]",129 nM,452 nM,
"COc1cc(NC(=O)c2cccc(NC3=NCCCN3)c2)ccc1OCC(=O)O [Example 119, [2-methoxy-4-[[[3-[(1,4,5,6-tetrahydropyrimidin-2-yl]-amino]phenyl]carbonyl]amino]phenoxy]acetic acid, trifluoroacetate salt]",0.4 nM,772 nM,
"N=C(N)Nc1cccc(C(=O)Nc2ccc(CC(C(=O)O)C(=O)O)cc2)c1 [Example 120, [[4-[[[3-[(aminoiminomethyl)amino]phenyl]carbonyl]-amino]phenyl]methyl]-1,3-propanoic acid, trifluoroacetic salt]",14 nM,384 nM,
"Cc1cc(C)c(S(=O)(=O)NC(Cc2ccc(NC(=O)c3cccc(NC(=N)N)c3)cc2)C(=O)O)c(C)c1 (stereo not drawn) [Example 121, trifluoroacetate salt]",,2 nM,1 nM
"N=C(N)Nc1cccc(C(=O)Nc2ccc(CC(NS(=O)(=O)c3cc(Cl)cc(Cl)c3)C(=O)O)cc2)c1 (stereo not drawn) [Example 122, [4-[[[3-[(aminoiminomethyl)amino]phenyl]carbonyl]-amino]-N-[(3,5-dichlorophenyl)sulfonyl]phenyl-alanine, trifluoroacetate salt]",7 nM,50 nM,
"N=C(N)Nc1cccc(C(=O)Nc2ccc(CC(NC(=O)N3CCOCC3)C(=O)O)cc2)c1 (stereo not drawn) [Example 125, 4-[[[3-[(aminoiminomethyl)amino]phenyl]carbonyl]-amino]-N-[(4-morpholinyl)carbonyl]phenylalanine, bis(trifluoroacetate) salt, monohydrate]",7 nM,260 nM,
"N=C(N)Nc1cccc(C(=O)Nc2ccc(CC(NC(=O)N3CCCCC3)C(=O)O)cc2)c1 (stereo not drawn) [Example 126, 4-[[[3-[(aminoiminomethyl)amino]phenyl]carbonyl]-amino]-N-[(1-pipridinyl)carbonyl]phenyl-alanine, trifluoroacetate salt]",2 nM,36 nM,
"CC(C)OC(=O)NC(Cc1ccc(NC(=O)c2cccc(NC(=N)N)c2)c(Cl)c1)C(=O)O (stereo not drawn) [Example 127, trifluoroacetate salt]",,22 nM,0.6 nM
